The text below walks through data of paper PMC4179164, “Ophiobolin A from Bipolaris oryzae Perturbs Motility and Membrane Integrities of Porcine Sperm and Induces Cell Death on Mammalian Somatic Cell Lines” (Toxins, 2014).

Values after ≈ are worked out from the molar mass of the structure shown. Bounds are passed on as bounds.

For series [1], the system named is boar spermatozoa. The conditions noted are these: ref 4 (alamethicin, trilongin), 5 (acrebol), 6 (enniatin B), cited from earlier work.
The subject of series [2] is boar spermatozoa. The conditions noted are these: ref 4 (alamethicin, trilongin), 5 (acrebol), 6 (enniatin B); cited from earlier work.
Series [3] has as its system boar spermatozoa. The conditions noted are these: ref 4 (alamethicin, trilongin), 5 (acrebol), 6 (enniatin B); cited from earlier work. The source holds these as a separate data set.
Series [4] concerns boar spermatozoa. The conditions noted are these: ref 4 (alamethicin, trilongin), 5 (acrebol), 6 (enniatin B); cited from earlier work. The source holds these as a separate data set.
The subject of series [5] is porcine kidney (PK-15) cells. The conditions noted are these: ref 4 (alamethicin, trilongin), 5 (acrebol), 6 (enniatin B); cited from earlier work.
The subject of series [6] is boar spermatozoa. The conditions noted are these: ref 4 (alamethicin), 6 (enniatin B); cited from earlier work.
For series [7], the system named is boar spermatozoa. The experiment in a line: Sperm motility inhibition assay (progressive and rapid motility). Format: cell-based. The conditions noted are these: 24 h, boar spermatozoa, 24 h exposure at room temperature, read-out: Toxic endpoint EC50, Motility inhibition (24 h). On the procedure:
Furthermore, their physiological characters including their motility are influenced mainly by membrane potentials and ion fluxes. Thus, the change of sperm motility is able to sensitively indicate the substances causing mitochondrial membrane depolarization even at sublethal doses, which is undetectable with other cell lines. Motility of the spermatozoa was judged after exposure of 30 min and 24 h at room temperature with minor modification of a previously described method.
The sperm motility inhibition assay was done as reported by Andersson et al.. Commercial boar semen obtained from Figen Oy Finland extended in MR-A (Kubus, S.A., Madrid, Spain) containing 27 × 10^6 spermatozoa·mL^−1 was used. The purified OPA was diluted by serial dilutions in methanol obtaining two ranges of concentrations with 4-4 levels from 2500 μg mL^−1 to 250.0 μg mL^−1 and from 50 μg mL^−1 to 5.0 μg mL^−1, for short and long time exposures, respectively. Twenty μL of each dilution was administered to 2 mL of MR-A-diluted boar semen resulting approximately 100 times dilution of the original stock solutions; 20 μL of methanol was added to spermatozoa in the same way as a blank assay. The samples were incubated for 30 min and 24 h at room temperature for short and long term exposure assays, respectively. After exposure, motility was induced in the sperm cells by incubation in 37 °C for 5 min and shaking to provide the sperm cells with oxygen. […]
The above described subjective motility assay was calibrated with an automatic Hamilton Thorne sperm motility analyzer (HTM-S, ver. 7.2; Hamilton-Thorn Research, Danvers, MA, USA). […] Thus the protocol for assessing sperm tail beating as a measure of motility inhibition gave 99% similarity to measurements of the proportion of rapidly motile spermatozoa done with Hamilton Thorne sperm analyzer (HTM-S, ver. 7.2; Hamilton-Thorn Research, Danvers, MA, USA) Toxicity was expressed as the endpoint concentration of the OPA solution, where the progressive and rapid motility of the sperm cells were <50% of the vehicle exposed sperm cells. […]

The test system of series [8] is boar spermatozoa. The experiment in a line: Cell membrane permeability assay on motile sperm cells (PI staining). The format is cell-based. The conditions noted are these: boar spermatozoa, motile at 37 °C, 2 h; read-out: Toxic endpoint EC50, Permeability to PI on motile cells. On the procedure:
To test the effect of OPA exposure on sperm cells in physiological conditions (swimming at 37 °C) the plasma membrane disruption on motile sperm cells was measured with the viability PI stain, where the loss of plasma membrane integrity was detected as appearance of red color stained nuclei in the damaged cells. In this assay, sperm cells were exposed to OPA at 37 °C and motility of the exposed sperm cells was induced and maintained for 2 h.
Cell membrane permeability assay on motile sperm cells was inspected by staining with PI (Molecular Probes, Eugene, OR, USA) in sperm cells induced to swim by shaking at 37 °C. One hundred and fifty μL aliquots of commercial extended boar semen with a density of 27 × 10^6 sperms mL^−1 were pipetted into microtiter plate wells and serially diluted methanolic solution of OPA were added in the concentration range of 200 ng mL^−1 to 4 μg mL^−1 including 6 levels and an additional methanol blank, and pre-incubated for 2 h on orbital shaker (Innova 5000 new Brunswick Scientific, Enfield, CT, USA) (160 rpm) at 37 °C. Four parallel measurements were done for each dilution. One ml PI solution (1 mg mL^−1 in Dulbeco’s phosphate buffered saline) was mixed with 3 mL of […] Dulbeco’s phosphate buffered saline. One hundred and fifty μL of this stain mixture was added to 150 μL of exposed boar semen. This suspension was incubated for 15 min at 37 °C in dark and measured using a microplate reader (Fluoroskan Ascent, Thermo Scientific, Vantaa, Finland) at excitation and emission wavelengths of 544 nm and 600 nm, respectively. For observing plasma membrane damage by PI staining frozen-thawed semen was used as a positive control (for mortality of 100%) representing the maximal fluorescence emitted by the cells permeable to PI and Dulbeco’s phosphate buffered saline was applied as background control (blank). Loss of viability in the sample was calculated as described in Alm et al.. The frozen sample represented 100% loss of viability. The assay was calibrated with triclosan (Sigma Chemical Co., St. Louis, MO, USA), in 5 parallel tests, the EC50 was 2 μg mL^−1 (SD ± 0.6). Cell membrane permeability assay on static sperm cells at room temperature was carried out by viability staining with PI and calcein-AM (Molecular Probes, Eugene, OR, USA) according to Hoornstra et al. in same concentration range and levels described above.

Series [9] is described as follows: Mammalian somatic cell toxicity assay calibration (cell line not stated). The conditions noted are these: 10 parallel tests, SD ± 3.4, cell line not stated. The format is cell-based. The protocol:
Cytotoxicity against somatic cells was tested with feline fetus lung cells (FFL) cultivated as described by Andersson et al. and murine neuroblastoma cells (MNA) as described by Kulonen et al. as well as porcine kidney tubular epithelial cell line (PK-15), cultured as reported earlier. All somatic cell lines were maintained in an atmosphere of 95% air, 5% CO2 and 95% relative humidity at 37 °C on RPMI 1640 (complete medium) in a cell culture cabinet (Heracell 150i; Thermo Fisher Scientific, Vantaa, Finland). The detached cells were seeded onto 96 well microtiter plates and exposed to the purified OPA, the final concentration of which ranged from 48.8 ng mL^−1 to 25 μg mL^−1 containing 10 levels in methanol. After incubating the plates for one day at 37 °C, inhibition of cell proliferation was inspected in phase contrast microscope. EC100 for inhibition of proliferation was easy to observe as absence of cell monolayer and absence of intact cells in the well. EC0 was also easy to observe as an intact cell monolayer indistinguishable from the control. In microscope the determining of EC50 was more difficult. […] Then, the plates were analyzed by a microtiter plate reader (Fluoroskan Ascent, Thermo Scientific, Vantaa, Finland) at the excitation and emission wavelengths of 544 nm and 590 nm, respectively. […]

As to Acrebol, in the series on boar spermatozoa [1], the “Toxic endpoint EC50, Motility inhibition (30 min)” value was 2 µg/mL and the “Toxic endpoint EC50, Motility inhibition (24 h)” value was 0.1 µg/mL. For the same molecule, the “Toxic endpoint EC50, Shivering tail beating induction” value with boar spermatozoa [2] was “None”. Besides, the “Toxic endpoint EC50, Dissipation of ΔΨm” value in the series on boar spermatozoa [3] was 0.8 µg/mL. In addition, in the series with boar spermatozoa [4], the “Toxic endpoint EC50, Permeability to PI on static cells” value (“Toxic endpoint EC50 … on static cells” for short) is above 4 µg/mL. Besides, the “Toxic endpoint EC50, Cytotoxicity, PK-15 cells” value in series [5] is at least 10 µg/mL.
On to `CC(C)[C@H]1C(=O)O[C@H](C(C)C)C(=O)N(C)[C@@H](C(C)C)C(=O)O[C@H](C(C)C)C(=O)N(C)[C@@H](C(C)C)C(=O)O[C@H](C(C)C)C(=O)N1C` [Enniatin B], for which, in the series with boar spermatozoa [1], the “Toxic endpoint EC50, Motility inhibition (30 min)” value was above 10 µg/mL and the “Toxic endpoint EC50, Motility inhibition (24 h)” value is 5 µg/mL. For the same molecule, in the series with boar spermatozoa [2], the “Toxic endpoint EC50, Shivering tail beating induction” value was “None”. The “Toxic endpoint EC50, Dissipation of ΔΨm” value in the series on boar spermatozoa [3] was 5 µg/mL. Besides, the “Toxic endpoint EC50 … on static cells” value in the series with boar spermatozoa [4] is above 50 µg/mL. In addition, the “Toxic endpoint EC50, Permeability to PI on motile cells” value in the series on boar spermatozoa [6] was above 20 µg/mL. Moreover, in [5], the “Toxic endpoint EC50, Cytotoxicity, PK-15 cells” value is 60 µg/mL.
As for `Oc1cc(Cl)ccc1Oc1ccc(Cl)cc1Cl` [triclosan], the EC50 (as a rule, the concentration that produces a half-maximal response) in the series with boar spermatozoa [7] was 1 µg/mL (≈ 3.45 µM); in the series with boar spermatozoa [8], 2 µg/mL (≈ 6.91 µM). Also, in series [9], a half-maximal response (EC50 at 3 days) required 9.4 µg/mL (≈ 32.5 µM).
Regarding Alamethicin, in the series with boar spermatozoa [1], the “Toxic endpoint EC50, Motility inhibition (30 min)” value is 1 µg/mL and the “Toxic endpoint EC50, Motility inhibition (24 h)” value is 0.2 µg/mL. In addition, the “Toxic endpoint EC50, Shivering tail beating induction” value in the series on boar spermatozoa [2] is given as “None”. In the series on boar spermatozoa [3], the “Toxic endpoint EC50, Dissipation of ΔΨm” value is 0.2 µg/mL. The “Toxic endpoint EC50 … on static cells” value with boar spermatozoa [4] is 0.2 µg/mL. Moreover, the “Toxic endpoint EC50, Permeability to PI on motile cells” value in the series on boar spermatozoa [6] was at most 0.5 µg/mL. Besides, in series [5], the “Toxic endpoint EC50, Cytotoxicity, PK-15 cells” value was 8 µg/mL.
